From patent US11696914B1 (priority 2019, dated 2023)

Target: Zaire ebolavirus disulfide-linked glycoprotein heterodimer (GP1-GP2) (Zaire ebolavirus, UniProt Q05320)
Assay: biochemical
Format: binding

Zaire ebolavirus disulfide-linked glycoprotein heterodimer (GP1-GP2), sequence (Q05320 33-501 limits assumed): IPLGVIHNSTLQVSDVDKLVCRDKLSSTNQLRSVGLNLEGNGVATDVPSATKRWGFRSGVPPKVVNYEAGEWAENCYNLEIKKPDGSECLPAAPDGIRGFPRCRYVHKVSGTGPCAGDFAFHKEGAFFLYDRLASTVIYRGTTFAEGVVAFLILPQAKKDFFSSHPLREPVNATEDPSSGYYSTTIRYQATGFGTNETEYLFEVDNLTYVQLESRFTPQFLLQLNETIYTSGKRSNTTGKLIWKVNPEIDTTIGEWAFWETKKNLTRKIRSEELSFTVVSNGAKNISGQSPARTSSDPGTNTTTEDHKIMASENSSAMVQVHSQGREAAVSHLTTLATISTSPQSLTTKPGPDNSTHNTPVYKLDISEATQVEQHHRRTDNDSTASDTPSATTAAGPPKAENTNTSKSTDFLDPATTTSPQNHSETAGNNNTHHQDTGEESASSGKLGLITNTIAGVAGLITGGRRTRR
Zaire ebolavirus disulfide-linked glycoprotein heterodimer (GP1-GP2), sequence (Q05320 502-676 limits assumed): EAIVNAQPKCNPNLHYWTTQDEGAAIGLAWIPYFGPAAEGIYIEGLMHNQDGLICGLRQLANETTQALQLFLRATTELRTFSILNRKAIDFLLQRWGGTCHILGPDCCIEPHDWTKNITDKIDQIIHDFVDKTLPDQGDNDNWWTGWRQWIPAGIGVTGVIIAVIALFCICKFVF

C[C@H]1[C@H](OC(=O)CCC(=O)O)O[C@@H]2O[C@@]3(C)CC[C@H]4[C@H](C)CC[C@@H]1[C@@]24OO3 [Artesunate]
binds to EBOV glycoprotein: did not

NC(=O)c1nc(F)c[nH]c1=O [Favipiravir]
binds to EBOV glycoprotein: did not

COc1ccc2nc3cc(Cl)ccc3c(Nc3cc(CN4CCCC4)c(O)c(CN4CCCC4)c3)c2n1 [Pyronaridine, 4-[(7-Chloro-2-methoxybenzo[b][1,5]naph-thyridin-10-yl)amino]-2,6-bis(1-pyrrolidinylmethyl)phenol phosphate (1:4)]
Kd: 7.34 µM

CCN(CC)CCCC(C)Nc1c2ccc(Cl)cc2nc2ccc(OC)cc12 (centres unmarked) [Quinacrine]
Kd: 7.55 µM

CCN(CC)CCOc1ccc2c(c1)C(=O)c1cc(OCCN(CC)CC)ccc1-2 [Tilorone]
Kd: 0.73 µM
